Experimental data taken from patent US8586591B2, “Aminopyrazine derivative and medicine” (Nippon Shinyaku Co., Ltd., priority 2009, dated 2013).
Counter-ions that a name gives are not always drawn.

Legend:
JAK2 tyrosine kinase = target: T1, JAK2 tyrosine kinase (Homo sapiens, UniProt O60674); test: Test 1: inhibitory activity to JAK2 tyrosine kinase (ELISA); assay type: biochemical; conditions: 25 μM ATP in substrate solution, 30° C. for 1 hour, n=2
T1 construct: purchased Carnabioscience Co
Procedure, shortened: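 This is an ELISA read at A450 (HRP anti-phosphotyrosine antibody, TMB) of biotin-peptide phosphorylation captured on streptavidin. Enzyme solution was 0.75 nM JAK2, and the substrate solution was 625 nM peptide with 25 μM ATP in Tris pH 7.5 buffer. The reaction ran 1 h at 30 °C with compounds in duplicate, and IC50 was fitted non-linearly.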

JAK3 tyrosine kinase = target: T2, JAK3 tyrosine kinase (Homo sapiens, UniProt P52333); test: Test 1: inhibitory activity to JAK3 tyrosine kinase (ELISA); assay type: biochemical; conditions: 25 μM ATP in substrate solution, 30° C. for 1 hour, n=2
T2 construct: purchased Carnabioscience Co
T2 sequence (P52333 1-1124): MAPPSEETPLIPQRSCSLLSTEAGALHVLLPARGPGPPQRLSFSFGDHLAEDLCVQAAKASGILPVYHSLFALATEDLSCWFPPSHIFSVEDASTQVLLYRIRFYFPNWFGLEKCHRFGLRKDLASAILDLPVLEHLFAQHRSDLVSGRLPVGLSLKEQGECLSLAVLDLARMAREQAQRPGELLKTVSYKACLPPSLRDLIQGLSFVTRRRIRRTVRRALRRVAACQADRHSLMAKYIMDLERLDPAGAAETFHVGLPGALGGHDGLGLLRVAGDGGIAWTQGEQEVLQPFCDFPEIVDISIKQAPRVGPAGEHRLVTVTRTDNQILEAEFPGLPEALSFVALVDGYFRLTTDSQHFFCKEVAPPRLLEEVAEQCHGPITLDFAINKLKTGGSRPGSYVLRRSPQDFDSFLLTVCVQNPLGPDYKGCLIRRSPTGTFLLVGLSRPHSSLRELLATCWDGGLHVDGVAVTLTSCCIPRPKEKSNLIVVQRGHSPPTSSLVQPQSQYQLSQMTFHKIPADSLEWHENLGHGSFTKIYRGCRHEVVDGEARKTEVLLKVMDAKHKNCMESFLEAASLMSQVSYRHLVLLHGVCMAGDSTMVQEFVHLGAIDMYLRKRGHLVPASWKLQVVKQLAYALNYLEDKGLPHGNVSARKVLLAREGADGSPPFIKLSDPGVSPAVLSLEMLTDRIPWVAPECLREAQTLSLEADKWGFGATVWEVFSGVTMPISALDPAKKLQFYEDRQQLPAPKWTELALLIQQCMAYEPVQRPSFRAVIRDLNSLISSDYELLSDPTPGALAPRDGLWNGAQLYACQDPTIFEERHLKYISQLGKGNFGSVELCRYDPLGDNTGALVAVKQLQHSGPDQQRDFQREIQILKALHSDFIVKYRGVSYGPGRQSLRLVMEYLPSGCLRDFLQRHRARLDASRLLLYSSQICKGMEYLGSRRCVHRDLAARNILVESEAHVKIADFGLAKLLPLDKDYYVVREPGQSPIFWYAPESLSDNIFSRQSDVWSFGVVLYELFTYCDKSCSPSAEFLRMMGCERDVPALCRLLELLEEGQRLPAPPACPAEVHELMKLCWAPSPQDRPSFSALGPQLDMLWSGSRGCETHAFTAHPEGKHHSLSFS
Procedure, shortened: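 ELISA of JAK3 kinase activity with absorbance read at 450 nm. Compounds were tested from DMSO dilution series at 100-fold the measurement concentrations (1000–0.01 μM), diluted up to 20 times in assay buffer, against a DMSO negative control. IC50 was estimated by non-linear regression of absorbance.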

T1 sequence (O60674 whole entry): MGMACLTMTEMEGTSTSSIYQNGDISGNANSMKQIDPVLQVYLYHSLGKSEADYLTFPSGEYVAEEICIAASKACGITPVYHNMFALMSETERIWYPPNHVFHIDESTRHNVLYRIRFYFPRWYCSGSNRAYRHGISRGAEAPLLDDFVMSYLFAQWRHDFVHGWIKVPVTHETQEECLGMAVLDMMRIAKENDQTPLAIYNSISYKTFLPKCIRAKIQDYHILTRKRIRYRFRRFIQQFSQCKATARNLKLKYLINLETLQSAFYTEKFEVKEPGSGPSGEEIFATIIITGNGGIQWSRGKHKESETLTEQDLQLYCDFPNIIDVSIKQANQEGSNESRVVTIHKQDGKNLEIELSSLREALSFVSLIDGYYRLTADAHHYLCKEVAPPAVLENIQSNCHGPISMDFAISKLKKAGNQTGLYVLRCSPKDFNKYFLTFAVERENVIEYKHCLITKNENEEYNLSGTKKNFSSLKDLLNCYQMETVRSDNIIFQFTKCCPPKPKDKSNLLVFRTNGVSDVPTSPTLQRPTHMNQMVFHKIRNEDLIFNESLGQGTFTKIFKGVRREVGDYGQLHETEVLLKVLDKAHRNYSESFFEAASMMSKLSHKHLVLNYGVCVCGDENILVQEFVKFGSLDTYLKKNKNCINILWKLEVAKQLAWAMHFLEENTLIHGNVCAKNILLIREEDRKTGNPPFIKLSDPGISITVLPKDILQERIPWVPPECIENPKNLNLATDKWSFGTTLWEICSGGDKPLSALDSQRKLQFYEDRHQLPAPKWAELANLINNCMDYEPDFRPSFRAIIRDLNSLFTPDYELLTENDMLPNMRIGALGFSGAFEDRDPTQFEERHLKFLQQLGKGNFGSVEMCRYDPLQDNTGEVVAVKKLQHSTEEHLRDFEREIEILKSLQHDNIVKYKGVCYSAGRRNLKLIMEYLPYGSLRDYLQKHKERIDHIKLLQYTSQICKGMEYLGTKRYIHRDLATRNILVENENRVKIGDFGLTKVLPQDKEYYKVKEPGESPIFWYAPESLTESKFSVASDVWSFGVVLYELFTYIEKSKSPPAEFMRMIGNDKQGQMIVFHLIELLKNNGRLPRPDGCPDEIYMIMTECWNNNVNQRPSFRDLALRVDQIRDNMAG

Row | Compound | IC50 (JAK2 tyrosine kinase) | IC50 (JAK3 tyrosine kinase)
1 | C[C@H](Nc1nc(Nc2cnccn2)cc(N2CCN(S(C)(=O)=O)CC2)n1)c1ccc(Cl)cc1 [Example 100, (S)—N^2-[1-(4-Chlorophenyl)ethyl]-6-[4-(methylsulfonyl)piperazin-1-yl]-N^4-(pyrazin-2-yl)pyrimidine-2,4-diamine hydrochloride] | 0.52 nM | 47 nM
2 | C[C@H](Nc1nc(Nc2cnccn2)cc(O[C@H]2CCCC[C@@H]2O)n1)c1ccc(F)cc1 [Example 101, (1S,2S)-2-{2-[(S)-1-(4-Fluorophenyl)ethylamino]-6-(pyrazin-2-ylamino)pyrimidin-4-yloxy}cyclohexanol hydrochloride] | 11 nM | 600 nM
3 | Cc1cnc(CNc2cc(Nc3cnccn3)nc(N[C@@H](C)c3ccc(F)cc3)n2)cn1 [Example 102, (S)—N^2-[1-(4-Fluorophenyl)ethyl]-N^4-[(5-methylpyrazin-2-yl)methyl]-N^6-(pyrazin-2-yl)pyrimidine-2,4,6-triamine hydrochloride] | 2.6 nM | 140 nM
4 | C[C@H](Nc1nc(NCc2ccco2)cc(Nc2cnccn2)n1)c1ccc(F)cc1 [Example 103, (S)—N^2-[1-(4-Fluorophenyl)ethyl]-N^4-(furan-2-ylmethyl)-N^6-(pyrazin-2-yl)pyrimidine-2,4,6-triamine hydrochloride] | 4.1 nM | 310 nM
5 | CC(Nc1cc(Nc2cnccn2)nc(N[C@@H](C)c2ccc(F)cc2)n1)c1cccnc1 (stereo partly drawn) [Example 104, (S)—N^2-[1-(4-Fluorophenyl)ethyl]-N^4-(pyrazin-2-yl)-N^6-[1-(pyridin-3-yl)ethyl]pyrimidine-2,4,6-triamine] | 1 nM | 39 nM
6 | C[C@H](Nc1nc(NCc2ccccn2)cc(Nc2cnccn2)n1)c1ccc(F)cc1 [Example 106, (S)—N^2-[1-(4-Fluorophenyl)ethyl]-N^4-(pyrazin-2-yl)-N^6-(pyridin-2-ylmethyl)pyrimidine-2,4,6-triamine] | 1.9 nM | 110 nM
7 | C[C@H](Nc1nc(NCc2cccnc2)cc(Nc2cnccn2)n1)c1ccc(F)cc1 [Example 107, (S)—N^2-[1-(4-Fluorophenyl)ethyl]-N^4-(pyrazin-2-yl)-N^6-(pyridin-3-ylmethyl)pyrimidine-2,4,6-triamine] | 0.77 nM | 56 nM
8 | C[C@H](Nc1nc(NCc2ccncc2)cc(Nc2cnccn2)n1)c1ccc(F)cc1 [Example 108, (S)—N^2-[1-(4-Fluorophenyl)ethyl]-N^4-(pyrazin-2-yl)-N^6-(pyridin-4-ylmethyl)pyrimidine-2,4,6-triamine] | 1.1 nM | 56 nM
9 | C[C@H](Nc1nc(Nc2cnccn2)cc(N[C@@H](CO)C(N)=O)n1)c1ccc(F)cc1 [Example 109, (S)-2-{2-[(S)-1-(4-Fluorophenyl)ethylamino]-6-(pyrazin-2-ylamino)pyrimidin-4-ylamino}-3-hydroxypropanamide] | 2.4 nM | 130 nM
10 | C[C@H](Nc1nc(Nc2cnccn2)cc(N2C[C@H](O)[C@@H](O)C2)n1)c1ccc(F)cc1 [Example 110, (3S,4S)-1-{2-[(S)-1-(4-Fluorophenyl)ethylamino]-6-(pyrazin-2-ylamino)pyrimidin-4-yl}pyrrolidin-3,4-diol] | 0.67 nM | 44 nM
11 | C[C@H](Nc1nc(Nc2cnccn2)cc(N2CCC3(CC2)OCCO3)n1)c1ccc(F)cc1 [Example 111, N^2-[(S)-1-(4-Fluorophenyl)ethyl]-N^4-(pyrazin-2-yl)-6-(1,4-dioxa-8-azaspiro[4.5]decan-8-yl)pyrimidine-2,4-diamine] | 1.6 nM | 110 nM
12 | C[C@H](Nc1cc(-c2cnn(Cc3ccccc3)c2)cc(Nc2cnccn2)n1)c1ccc(F)cc1 [Example 113, (S)-4-(1-Benzyl-1H-pyrazol-4-yl)-N^2-[1-(4-fluorophenyl)ethyl]-N^6-(pyrazin-2-yl)pyridine-2,6-diamine] | 4.9 nM | 200 nM
13 | C[C@H](Nc1nc(Nc2cnccn2)cc(N2CCN(S(=O)(=O)c3ccccc3)CC2)n1)c1ccc(F)cc1 [Example 114, (S)—N^2-[1-(4-Fluorophenyl)ethyl]-6-[4-(phenylsulfonyl)piperazin-1-yl]-N^4-(pyrazin-2-yl)pyrimidine-2,4-diamine hydrochloride] | 4.8 nM | 66 nM

Next, values leading:

Row | IC50 (JAK2 tyrosine kinase) | IC50 (JAK3 tyrosine kinase) | Compound
14 | 2.3 nM | 210 nM | C[C@H](Nc1cc(-c2ccc(C(N)=O)cc2)cc(Nc2cnccn2)n1)c1ccc(F)cc1 [Example 115, (S)-4-{2-[1-(4-Fluorophenyl)ethylamino]-6-(pyrazin-2-ylamino)pyridin-4-yl}benzamide dihydrochloride]
15 | 5.3 nM | 340 nM | C[C@H](Nc1cc(-c2cc[nH]c2)cc(Nc2cnccn2)n1)c1ccc(F)cc1 [Example 116, (S)—N^2-[1-(4-Fluorophenyl)ethyl]-N^6-(pyrazin-2-yl)-4-(1H-pyrrol-3-yl)pyridine-2,6-diamine dihydrochloride]
16 | 2.7 nM | 190 nM | C[C@H](Nc1cccc(Nc2cnccn2)n1)c1ccc(F)cc1 [Example 117, (S)—N^2-[1-(4-Fluorophenyl)ethyl]-N^6-(pyrazin-2-yl)pyridine-2,6-diamine dihydrochloride]
17 | 1.6 nM | 290 nM | Cc1cn(-c2cc(Nc3cnccn3)nc(N[C@@H](C)c3ccc(F)cc3)n2)cn1 [Example 118, (S)—N^2-[1-(4-Fluorophenyl)ethyl]-6-(4-methyl-1H-imidazol-1-yl)-N^4-(pyrazin-2-yl)pyrimidine-2,4-diamine hydrochloride]
18 | 28 nM | 1600 nM | COc1ccc(-c2cc(Nc3cnccn3)nc(N[C@@H](C)c3ccc(F)cc3)c2)cc1 [Example 119, (S)—N^2-[1-(4-Fluorophenyl)ethyl]-4-(4-methoxyphenyl)-N^6-(pyrazin-2-yl)pyridine-2,6-diamine hydrochloride]
19 | 23 nM | 1700 nM | C[C@H](Nc1cc(-c2ccc(F)cc2)cc(Nc2cnccn2)n1)c1ccc(F)cc1 [Example 120, (S)-4-(4-Fluorophenyl)-N^2-[1-(4-fluorophenyl)ethyl]-N^6-(pyrazin-2-yl)pyridine-2,6-diamine hydrochloride]
20 | 2.7 nM | 170 nM | Cc1cc(Nc2cnccn2)nc(N[C@@H](C)c2ccc(F)cc2)c1 [Example 121, (S)—N^2-[1-(4-Fluorophenyl)ethyl]-4-methyl-N^6-(pyrazin-2-yl)pyridine-2,6-diamine hydrochloride]
21 | 0.4 nM | 30 nM | C[C@H](Nc1nc(Nc2cnccn2)cc(N2CCC(C(=O)NS(C)(=O)=O)CC2)n1)c1ccc(F)cc1 [Example 122, (S)-1-{2-[1-(4-Fluorophenyl)ethylamino]-6-(pyrazin-2-ylamino)pyrimidin-4-yl}-N-(methylsulfonyl)piperidine-4-carboxamide]
22 | 5.4 nM | 330 nM | C[C@H](Nc1cc(-c2ccoc2)cc(Nc2cnccn2)n1)c1ccc(F)cc1 [Example 123, (S)—N^2-[1-(4-Fluorophenyl)ethyl]-4-(furan-3-yl)-N^6-(pyrazin-2-yl)pyridine-2,6-diamine]
23 | 1.3 nM | 66 nM | C[C@H](Nc1cc(N2CCN(S(C)(=O)=O)CC2)cc(Nc2cnccn2)n1)c1ccc(F)cc1 [Example 124, (S)—N^2-[1-(4-Fluorophenyl)ethyl]-4-[4-(methylsulfonyl)piperazin-1-yl]-N^6-(pyrazin-2-yl)pyridine-2,6-diamine hydrochloride]
